Laboratory results from patent publication US20240254119A1 (THIRD HARMONIC BIO, INC., priority 2022, published 2024).

Target: T1, wtKIT (Homo sapiens, UniProt P10721)
T1 construct: 1888289AM in the reaction mixtures
Experiment: HTRF biochemical assay, wtKIT (phosphorylation of a peptide substrate)
Conditions: Table 4
Outline: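 HTRF read-out of FAM-peptide (1 µM) phosphorylation after anti-phosphotyrosine antibody addition and EDTA quench. Reaction: 5.0 nM wtKIT, 400 µM ATP, 10 mM Mn2+, HEPES pH 7.5, 1% DMSO, 3 h, 25 °C; optional enzyme-compound preincubation; enzyme level set for 10-20% conversion.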

T1 sequence (P10721 26-976): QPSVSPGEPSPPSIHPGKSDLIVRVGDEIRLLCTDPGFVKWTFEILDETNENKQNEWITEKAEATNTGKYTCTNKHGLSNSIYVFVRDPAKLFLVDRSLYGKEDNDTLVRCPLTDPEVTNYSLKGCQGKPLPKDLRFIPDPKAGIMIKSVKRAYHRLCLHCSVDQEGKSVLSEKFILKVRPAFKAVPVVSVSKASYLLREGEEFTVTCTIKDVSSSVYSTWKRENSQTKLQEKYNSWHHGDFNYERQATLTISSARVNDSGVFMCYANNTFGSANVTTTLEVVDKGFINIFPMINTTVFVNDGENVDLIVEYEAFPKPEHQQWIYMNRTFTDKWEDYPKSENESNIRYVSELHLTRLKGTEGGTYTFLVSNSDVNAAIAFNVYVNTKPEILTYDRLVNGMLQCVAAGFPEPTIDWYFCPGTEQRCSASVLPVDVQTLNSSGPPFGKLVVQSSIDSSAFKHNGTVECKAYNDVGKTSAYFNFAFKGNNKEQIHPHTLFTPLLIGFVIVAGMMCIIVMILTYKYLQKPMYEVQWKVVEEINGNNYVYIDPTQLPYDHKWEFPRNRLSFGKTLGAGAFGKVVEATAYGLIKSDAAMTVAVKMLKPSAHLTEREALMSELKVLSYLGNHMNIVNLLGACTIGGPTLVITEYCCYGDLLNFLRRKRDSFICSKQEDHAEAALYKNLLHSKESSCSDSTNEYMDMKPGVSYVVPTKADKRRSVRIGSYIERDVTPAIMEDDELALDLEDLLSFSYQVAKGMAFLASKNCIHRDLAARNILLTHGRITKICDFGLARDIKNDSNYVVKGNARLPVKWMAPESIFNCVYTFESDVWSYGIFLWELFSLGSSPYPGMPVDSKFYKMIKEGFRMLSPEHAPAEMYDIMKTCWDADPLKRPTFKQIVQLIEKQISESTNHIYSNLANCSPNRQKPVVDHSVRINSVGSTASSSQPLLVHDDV

IC50 [nM]	Structure (SMILES)
50 to 500	Cc1ccc(-c2noc([C@@H]3CCC(C)(C)N3)n2)cc1NC(=O)c1cnc2ccccn12 (racemic) [Compound I-232]
50 to 500	CCS(=O)(=O)N1CC[C@@H]1c1nc(-c2ccc(C)c(NC(=O)c3cnc4ccccn34)c2)no1 [Compound I-234]
50 to 500	COC(=O)CS(=O)(=O)N1CC(c2nc(-c3ccc(C)c(NC(=O)c4cnc5ccccn45)c3)no2)C1 [Compound I-236]

Target: T1, wtKIT
Experiment: Caliper biochemical assay, wtKIT
Conditions: Table 6, read-out: KIT Biochemical IC50 avg
Outline: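 Mobility-shift read-out: after EDTA stop, fluorescent peptide substrate and product resolved electrophoretically on LabChip 3000. Reaction ran 3 h at 25° C with 400 μM ATP, Mn^2+ cofactor, 5.0 nM wtKIT, 1 μM FAM-peptide, pH 7.5 HEPES buffer; no-enzyme wells defined full inhibition.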

Structure (SMILES)	IC50 [nM]
Cc1ccc(-c2noc([C@@H]3CCC(C)(C)N3)n2)cc1NC(=O)c1cnc2ccccn12 (racemic) [Compound I-232]	≤ 50
Cc1ccc(-c2noc(C3CCC(F)C3)n2)cc1NC(=O)c1cnc2ccccn12 (racemic) [Compound I-318]	≤ 50
COC(=O)CS(=O)(=O)N1CC(c2nc(-c3ccc(C)c(NC(=O)c4cnc5ccccn45)c3)no2)C1 [Compound I-236]	≤ 50
Cc1ccc(-c2noc(-c3ccccn3)n2)cc1NC(=O)c1cnc2ccccn12 [Compound I-272]	≤ 50
Cc1ccc(-c2noc(C3(CO)CC(F)(F)C3)n2)cc1NC(=O)c1cnc2ccccn12 [Compound I-320]	≤ 50

The remaining lines, values ahead:

IC50 [nM]	Structure (SMILES)
50 to 500	Cc1ccc(-c2noc(C3CCC(=O)N3C)n2)cc1NC(=O)c1cnc2ccccn12 (racemic) [Compound I-326]
≤ 50	Cc1ccc(-c2noc(CC3CCCOC3)n2)cc1NC(=O)c1cnc2ccccn12 (racemic) [Compound I-362]
≤ 50	CCS(=O)(=O)N1CC[C@@H]1c1nc(-c2ccc(C)c(NC(=O)c3cnc4ccccn34)c2)no1 [Compound I-234]
≤ 50	CCOC1CC(c2nc(-c3ccc(C)c(NC(=O)c4cnc5ccccn45)c3)no2)C1 (stereo not drawn) [Compound I-309]
≤ 50	COC(=O)N1CC(c2nc(-c3ccc(C)c(NC(=O)c4cnn5cc(Br)ccc45)c3)no2)C1 [Compound I-312]

Target: T2, CSF-1R (Homo sapiens, UniProt P07333)
T2 construct: purchased Invitrogen PV3249 (lot 662393N)
Experiment: Caliper biochemical assay, CSF-1R
Conditions: Table 6
Procedure: (§1) Enzyme, substrate, and cofactors (ATP and Mn^2+) are combined in a well of a microtiter plate and incubated for 3 hours at 25° C. At the end of the incubation, the reaction is quenched by the addition of an EDTA-containing buffer. Substrate and product are separated electrophoretically using the microfluidic-based LabChip 3000 Drug Discovery System from Caliper Life Sciences* and quantitated by fluorescence intensity.
(§2) The substrate used in the CSF-1R and PDGFRα assay is FAM-[…]-CONH2 (FAM is carboxyfluorescein). Peptide should be >95% purity. The substrate for the KIT assay is FAM-[…]-NH2.
(§3) • 1. To a well of a 384-well plate add 5 μL of 2× enzyme buffer (or control) • 2. Add 100 nL of 100× compound. • 3. Add 5 μL of 2× substrate buffer. • 4. Incubate plate at 25° C. for 3 hours. • 5. Add 10 uL of […]. • 6. Read plate LabChip 3000 Drug Discovery System
(§4) • 3 hours at 25° C. where 100% Inhibitor: No enzyme.

T2 sequence (P07333 20-972): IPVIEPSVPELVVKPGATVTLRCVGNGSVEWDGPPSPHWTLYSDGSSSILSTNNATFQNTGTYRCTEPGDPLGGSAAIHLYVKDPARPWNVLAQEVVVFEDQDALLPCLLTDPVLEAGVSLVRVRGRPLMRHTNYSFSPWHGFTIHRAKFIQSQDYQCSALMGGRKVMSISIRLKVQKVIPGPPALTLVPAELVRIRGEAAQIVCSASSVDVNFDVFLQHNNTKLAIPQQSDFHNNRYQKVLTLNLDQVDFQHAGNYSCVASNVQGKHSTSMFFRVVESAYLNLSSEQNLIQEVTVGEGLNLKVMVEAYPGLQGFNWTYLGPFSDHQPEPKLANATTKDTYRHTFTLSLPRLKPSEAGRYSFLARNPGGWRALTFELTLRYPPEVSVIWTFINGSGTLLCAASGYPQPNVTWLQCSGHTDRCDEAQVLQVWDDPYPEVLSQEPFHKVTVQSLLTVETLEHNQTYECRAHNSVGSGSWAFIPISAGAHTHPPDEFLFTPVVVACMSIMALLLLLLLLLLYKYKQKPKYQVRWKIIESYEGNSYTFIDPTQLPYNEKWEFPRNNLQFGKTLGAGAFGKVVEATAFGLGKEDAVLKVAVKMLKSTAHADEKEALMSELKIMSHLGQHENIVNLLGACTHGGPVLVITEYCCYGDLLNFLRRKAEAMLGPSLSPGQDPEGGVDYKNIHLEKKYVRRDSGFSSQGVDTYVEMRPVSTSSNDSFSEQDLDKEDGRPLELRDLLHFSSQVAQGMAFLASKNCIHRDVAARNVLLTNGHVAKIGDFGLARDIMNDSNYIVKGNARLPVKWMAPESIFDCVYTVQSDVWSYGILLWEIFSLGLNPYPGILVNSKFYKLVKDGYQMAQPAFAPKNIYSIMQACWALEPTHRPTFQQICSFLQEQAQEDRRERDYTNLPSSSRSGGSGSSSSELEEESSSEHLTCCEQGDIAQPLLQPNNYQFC

Structure (SMILES)	IC50 [nM]
Cc1ccc(-c2noc([C@@H]3CCC(C)(C)N3)n2)cc1NC(=O)c1cnc2ccccn12 (racemic) [Compound I-232]	≤ 50
Cc1ccc(-c2noc(C3CCC(F)C3)n2)cc1NC(=O)c1cnc2ccccn12 (racemic) [Compound I-318]	≤ 50
COC(=O)CS(=O)(=O)N1CC(c2nc(-c3ccc(C)c(NC(=O)c4cnc5ccccn45)c3)no2)C1 [Compound I-236]	500 to 5000
Cc1ccc(-c2noc(-c3ccccn3)n2)cc1NC(=O)c1cnc2ccccn12 [Compound I-272]	50 to 500
Cc1ccc(-c2noc(C3(CO)CC(F)(F)C3)n2)cc1NC(=O)c1cnc2ccccn12 [Compound I-320]	≤ 50

Further lines, results first:

IC50 [nM]	Structure (SMILES)
500 to 5000	Cc1ccc(-c2noc(C3CCC(=O)N3C)n2)cc1NC(=O)c1cnc2ccccn12 (racemic) [Compound I-326]
50 to 500	Cc1ccc(-c2noc(CC3CCCOC3)n2)cc1NC(=O)c1cnc2ccccn12 (racemic) [Compound I-362]
≤ 50	CCS(=O)(=O)N1CC[C@@H]1c1nc(-c2ccc(C)c(NC(=O)c3cnc4ccccn34)c2)no1 [Compound I-234]
50 to 500	CCOC1CC(c2nc(-c3ccc(C)c(NC(=O)c4cnc5ccccn45)c3)no2)C1 (stereo not drawn) [Compound I-309]
≤ 50	COC(=O)N1CC(c2nc(-c3ccc(C)c(NC(=O)c4cnn5cc(Br)ccc45)c3)no2)C1 [Compound I-312]

Target: T3, PDGFRα (Homo sapiens, UniProt P16234)
T3 construct: purchased Millipore 14-467 (lot 26321_ACTI)
Experiment: Caliper biochemical assay, PDGFRα
Conditions: Table 6
Procedure: as §1, §2, §3, §4

T3 sequence (P16234 24-1089): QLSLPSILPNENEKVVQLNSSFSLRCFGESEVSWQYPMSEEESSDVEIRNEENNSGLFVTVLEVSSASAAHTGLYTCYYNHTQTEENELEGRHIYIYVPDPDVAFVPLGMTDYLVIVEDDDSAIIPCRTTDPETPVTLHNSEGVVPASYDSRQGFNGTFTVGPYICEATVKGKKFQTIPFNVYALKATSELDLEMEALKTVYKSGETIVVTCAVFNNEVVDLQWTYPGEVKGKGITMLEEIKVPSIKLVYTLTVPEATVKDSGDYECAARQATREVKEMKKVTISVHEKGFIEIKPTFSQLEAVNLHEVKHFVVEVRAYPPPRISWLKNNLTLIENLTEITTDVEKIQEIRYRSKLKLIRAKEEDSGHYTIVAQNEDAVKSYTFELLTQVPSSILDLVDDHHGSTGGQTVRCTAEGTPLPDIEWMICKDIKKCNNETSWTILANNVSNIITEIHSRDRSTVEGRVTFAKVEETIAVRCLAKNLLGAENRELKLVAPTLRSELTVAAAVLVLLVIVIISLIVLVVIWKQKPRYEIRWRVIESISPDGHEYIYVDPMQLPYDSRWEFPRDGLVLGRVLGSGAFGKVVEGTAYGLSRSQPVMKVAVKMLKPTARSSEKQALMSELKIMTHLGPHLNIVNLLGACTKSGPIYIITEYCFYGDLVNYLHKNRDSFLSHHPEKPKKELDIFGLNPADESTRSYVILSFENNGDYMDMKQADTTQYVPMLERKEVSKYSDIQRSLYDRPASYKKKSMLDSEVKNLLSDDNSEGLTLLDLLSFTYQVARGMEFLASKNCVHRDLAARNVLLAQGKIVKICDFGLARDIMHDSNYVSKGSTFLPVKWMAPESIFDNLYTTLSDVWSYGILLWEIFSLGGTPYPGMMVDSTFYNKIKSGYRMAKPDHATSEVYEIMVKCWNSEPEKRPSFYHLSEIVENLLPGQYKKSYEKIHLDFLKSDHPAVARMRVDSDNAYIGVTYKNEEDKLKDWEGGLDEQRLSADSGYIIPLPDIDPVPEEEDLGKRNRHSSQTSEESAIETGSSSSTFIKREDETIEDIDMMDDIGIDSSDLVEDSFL

Structure (SMILES)	IC50 [nM]
Cc1ccc(-c2noc([C@@H]3CCC(C)(C)N3)n2)cc1NC(=O)c1cnc2ccccn12 (racemic) [Compound I-232]	50 to 500
Cc1ccc(-c2noc(C3CCC(F)C3)n2)cc1NC(=O)c1cnc2ccccn12 (racemic) [Compound I-318]	50 to 500
COC(=O)CS(=O)(=O)N1CC(c2nc(-c3ccc(C)c(NC(=O)c4cnc5ccccn45)c3)no2)C1 [Compound I-236]	5000 to 30000
Cc1ccc(-c2noc(-c3ccccn3)n2)cc1NC(=O)c1cnc2ccccn12 [Compound I-272]	500 to 5000
Cc1ccc(-c2noc(C3(CO)CC(F)(F)C3)n2)cc1NC(=O)c1cnc2ccccn12 [Compound I-320]	50 to 500

The remaining lines, values ahead:

IC50 [nM]	Structure (SMILES)
5000 to 30000	Cc1ccc(-c2noc(C3CCC(=O)N3C)n2)cc1NC(=O)c1cnc2ccccn12 (racemic) [Compound I-326]
500 to 5000	Cc1ccc(-c2noc(CC3CCCOC3)n2)cc1NC(=O)c1cnc2ccccn12 (racemic) [Compound I-362]
50 to 500	CCS(=O)(=O)N1CC[C@@H]1c1nc(-c2ccc(C)c(NC(=O)c3cnc4ccccn34)c2)no1 [Compound I-234]
500 to 5000	CCOC1CC(c2nc(-c3ccc(C)c(NC(=O)c4cnc5ccccn45)c3)no2)C1 (stereo not drawn) [Compound I-309]
500 to 5000	COC(=O)N1CC(c2nc(-c3ccc(C)c(NC(=O)c4cnn5cc(Br)ccc45)c3)no2)C1 [Compound I-312]

Target: T4, BCRP (BCRP-MDCKII monolayer) (Homo sapiens, UniProt Q9UNQ0)
T4 construct: host or cells: MDCKII (canine kidney) cells
T4 sequence (Q9UNQ0 1-655): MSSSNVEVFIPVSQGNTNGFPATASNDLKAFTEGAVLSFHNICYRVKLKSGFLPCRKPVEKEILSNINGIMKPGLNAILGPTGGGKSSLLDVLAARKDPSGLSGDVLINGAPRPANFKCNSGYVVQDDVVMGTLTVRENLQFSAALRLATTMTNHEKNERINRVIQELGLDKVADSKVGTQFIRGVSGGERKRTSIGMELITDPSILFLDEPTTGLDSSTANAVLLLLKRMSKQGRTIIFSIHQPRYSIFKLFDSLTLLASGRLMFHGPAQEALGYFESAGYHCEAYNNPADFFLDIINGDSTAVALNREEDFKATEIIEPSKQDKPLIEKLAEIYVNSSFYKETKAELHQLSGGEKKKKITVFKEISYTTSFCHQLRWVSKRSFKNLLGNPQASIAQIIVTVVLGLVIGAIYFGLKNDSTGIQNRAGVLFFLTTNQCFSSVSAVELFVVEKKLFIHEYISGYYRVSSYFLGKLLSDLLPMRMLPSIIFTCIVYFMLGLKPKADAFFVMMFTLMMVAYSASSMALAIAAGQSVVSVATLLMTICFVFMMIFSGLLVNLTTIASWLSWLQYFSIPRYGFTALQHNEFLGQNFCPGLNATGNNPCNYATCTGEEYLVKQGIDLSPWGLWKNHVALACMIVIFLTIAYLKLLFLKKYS
Experiment: MDCKII-BCRP bidirectional transport assay
Assay type: in vitro ADME
Conditions: not given
Outline: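 Efflux ratios were derived from Papp values, alongside recovery, with compounds quantified by LC-MS/MS. Both directions were tested in duplicate across BCRP-MDCKII monolayers used on days 12–15. Incubation ran 120 min at 37° C, 5% CO2, after a 15 min preincubation in assay buffer.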

Structure (SMILES)	MDCK-BCRP: Efflux Ratio
Cc1ccc(-c2noc(C3CCC(F)C3)n2)cc1NC(=O)c1cnc2ccccn12 (racemic) [Compound I-318]	0.93
Cc1ccc(-c2noc(-c3ccccn3)n2)cc1NC(=O)c1cnc2ccccn12 [Compound I-272]	3.4
Cc1ccc(-c2noc(C3(CO)CC(F)(F)C3)n2)cc1NC(=O)c1cnc2ccccn12 [Compound I-320]	16

The next lines start with the values.

MDCK-BCRP: Efflux Ratio	Structure (SMILES)
28.3	Cc1ccc(-c2noc(C3CCC(=O)N3C)n2)cc1NC(=O)c1cnc2ccccn12 (racemic) [Compound I-326]
1.35	Cc1ccc(-c2noc(CC3CCCOC3)n2)cc1NC(=O)c1cnc2ccccn12 (racemic) [Compound I-362]
1.07	CCOC1CC(c2nc(-c3ccc(C)c(NC(=O)c4cnc5ccccn45)c3)no2)C1 (stereo not drawn) [Compound I-309]
1.42	COC(=O)N1CC(c2nc(-c3ccc(C)c(NC(=O)c4cnn5cc(Br)ccc45)c3)no2)C1 [Compound I-312]

Same assay, conditions: apical to basolateral

Structure (SMILES)	MDCK-BCRP: Papp A-B
Cc1ccc(-c2noc(C3CCC(F)C3)n2)cc1NC(=O)c1cnc2ccccn12 (racemic) [Compound I-318]	13.9 10^−6 cm/s
Cc1ccc(-c2noc(-c3ccccn3)n2)cc1NC(=O)c1cnc2ccccn12 [Compound I-272]	6.58 10^−6 cm/s
Cc1ccc(-c2noc(C3(CO)CC(F)(F)C3)n2)cc1NC(=O)c1cnc2ccccn12 [Compound I-320]	1.75 10^−6 cm/s

Second part, the molecule after the results:

MDCK-BCRP: Papp A-B	Structure (SMILES)
1.07 10^−6 cm/s	Cc1ccc(-c2noc(C3CCC(=O)N3C)n2)cc1NC(=O)c1cnc2ccccn12 (racemic) [Compound I-326]
8.71 10^−6 cm/s	Cc1ccc(-c2noc(CC3CCCOC3)n2)cc1NC(=O)c1cnc2ccccn12 (racemic) [Compound I-362]
11.3 10^−6 cm/s	CCOC1CC(c2nc(-c3ccc(C)c(NC(=O)c4cnc5ccccn45)c3)no2)C1 (stereo not drawn) [Compound I-309]
13.3 10^−6 cm/s	COC(=O)N1CC(c2nc(-c3ccc(C)c(NC(=O)c4cnn5cc(Br)ccc45)c3)no2)C1 [Compound I-312]

Test system: not listed separately
Experiment: Kinetic solubility assay
Assay type: physicochemical
Conditions: kinetic solubility, 50 mM PB (pH 7.4), shaken 24 hours at RT
Outline: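 Concentration in the filtrate was determined by UPLC-UV or HPLC-UV with a standard curve. Before that, compound (10 mM DMSO stock) in 50 mM PB at pH 7.4 was agitated 24 h at room temperature, then PTFE-filtered with centrifugation.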

Structure (SMILES)	Solubility (μM)
Cc1ccc(-c2noc([C@@H]3CCC(C)(C)N3)n2)cc1NC(=O)c1cnc2ccccn12 (racemic) [Compound I-232]	** (a solubility greater than 10 μM and less than or equal to 50 μM)
Cc1ccc(-c2noc(C3CCC(F)C3)n2)cc1NC(=O)c1cnc2ccccn12 (racemic) [Compound I-318]	*** (a solubility greater than 2 μM and less than or equal to 10 μM)
Cc1ccc(-c2noc(C3CCC(=O)N3C)n2)cc1NC(=O)c1cnc2ccccn12 (racemic) [Compound I-326]	* (a solubility greater than 50 μM)
Cc1ccc(-c2noc(CC3CCCOC3)n2)cc1NC(=O)c1cnc2ccccn12 (racemic) [Compound I-362]	*** (a solubility greater than 2 μM and less than or equal to 10 μM)
CCS(=O)(=O)N1CC[C@@H]1c1nc(-c2ccc(C)c(NC(=O)c3cnc4ccccn34)c2)no1 [Compound I-234]	** (a solubility greater than 10 μM and less than or equal to 50 μM)
COC(=O)CS(=O)(=O)N1CC(c2nc(-c3ccc(C)c(NC(=O)c4cnc5ccccn45)c3)no2)C1 [Compound I-236]	*** (a solubility greater than 2 μM and less than or equal to 10 μM)
Cc1ccc(-c2noc(-c3ccccn3)n2)cc1NC(=O)c1cnc2ccccn12 [Compound I-272]	**** (a solubility less than or equal to 2 μM)
CCOC1CC(c2nc(-c3ccc(C)c(NC(=O)c4cnc5ccccn45)c3)no2)C1 (stereo not drawn) [Compound I-309]	*** (a solubility greater than 2 μM and less than or equal to 10 μM)
COC(=O)N1CC(c2nc(-c3ccc(C)c(NC(=O)c4cnn5cc(Br)ccc45)c3)no2)C1 [Compound I-312]	**** (a solubility less than or equal to 2 μM)
Cc1ccc(-c2noc(C3(CO)CC(F)(F)C3)n2)cc1NC(=O)c1cnc2ccccn12 [Compound I-320]	*** (a solubility greater than 2 μM and less than or equal to 10 μM)
